What was measured:
Assay in all cases: Test C
Type in all cases: in vivo
Set-up in all cases: key: 0 was no effect; 100 was complete control
Conditions in all cases: PREEMERGENCE
[1] = tested on: large crabgrass (Digitaria sanguinalis)
[2] = tested on: arrowleaf sida (Sida rhombifolia)
[3] = tested on: cocklebur (Xanthium strumarium)
[4] = tested on: redroot pigweed (Amaranthus retroflexus)
[5] = tested on: barnyardgrass (Echinochloa crus-galli)
[6] = tested on: cotton (Gossypium hirsutum)
[7] = tested on: hairy beggarticks (Bidens pilosa)
[8] = tested on: wild poinsettia (Euphorbia heterophylla)
[9] = tested on: giant foxtail (Setaria faberii)
[10] = tested on: eastern black nightshade (Solanum ptycanthum)
[11] = tested on: velvetleaf (Abutilon theophrasti)
[12] = tested on: ivyleaf morningglory (Ipomoea hederacea)

Cc1cnc(-c2ccc(C(F)(F)F)cc2)nc1C(Cl)c1cccc(C(F)(F)F)c1 (racemic) [Compound 21]
85: Plant response rating, Arrowleaf sida ([2]; Rate 70 g/ha) | Plant response rating, Giant foxtail ([9]; Rate 35 g/ha) | Plant response rating, E. blacknightsh ([10]; Rate 140 g/ha)
50: Plant response rating, Velvetleaf ([11]; Rate 70 g/ha) | Plant response rating, Velvetleaf ([11]; Rate 140 g/ha)
20: Plant response rating, Cotton ([6]; Rate 140 g/ha)
90: Plant response rating, Arrowleaf sida ([2]; Rate 140 g/ha)
70: Plant response rating, Arrowleaf sida ([2]; Rate 35 g/ha)
5: Plant response rating, Barnyardgrass ([5]; Rate 140 g/ha) | Plant response rating, Cotton ([6]; Rate 70 g/ha) | Plant response rating, Wild poinsettia ([8]; Rate 70 g/ha) | Plant response rating, Wild poinsettia ([8]; Rate 140 g/ha)
80: Plant response rating, Large crabgrass ([1]; Rate 35 g/ha) | Plant response rating, Redroot pigweed ([4]; Rate 70 g/ha) | Plant response rating, E. blacknightsh ([10]; Rate 70 g/ha)
0: Plant response rating, Cocklebur ([3]; Rate 35 g/ha) | Plant response rating, Cocklebur ([3]; Rate 70 g/ha) | Plant response rating, Cocklebur ([3]; Rate 140 g/ha) | Plant response rating, Barnyardgrass ([5]; Rate 35 g/ha) | Plant response rating, Barnyardgrass ([5]; Rate 70 g/ha) | Plant response rating, Cotton ([6]; Rate 35 g/ha) | Plant response rating, H. beggarticks ([7]; Rate 35 g/ha) | Plant response rating, H. beggarticks ([7]; Rate 70 g/ha) | Plant response rating, Wild poinsettia ([8]; Rate 35 g/ha) | Plant response rating, Velvetleaf ([11]; Rate 35 g/ha) | Plant response rating, I. morningglory ([12]; Rate 35 g/ha) | Plant response rating, I. morningglory ([12]; Rate 70 g/ha) | Plant response rating, I. morningglory ([12]; Rate 140 g/ha)
100: Plant response rating, Large crabgrass ([1]; Rate 70 g/ha) | Plant response rating, Large crabgrass ([1]; Rate 140 g/ha) | Plant response rating, Redroot pigweed ([4]; Rate 140 g/ha) | Plant response rating, Giant foxtail ([9]; Rate 70 g/ha) | Plant response rating, Giant foxtail ([9]; Rate 140 g/ha)
40: Plant response rating, H. beggarticks ([7]; Rate 140 g/ha) | Plant response rating, E. blacknightsh ([10]; Rate 35 g/ha)

Cc1cnc(-n2cnc(C(F)(F)F)n2)nc1Cc1cccc(C(F)(F)F)c1 [Compound 43]
60: Plant response rating, Wild poinsettia ([8]; Rate 140 g/ha)
0: Plant response rating, Cocklebur ([3]; Rate 35 g/ha) | Plant response rating, Cotton ([6]; Rate 35 g/ha) | Plant response rating, Cotton ([6]; Rate 70 g/ha) | Plant response rating, H. beggarticks ([7]; Rate 35 g/ha)
10: Plant response rating, Barnyardgrass ([5]; Rate 35 g/ha) | Plant response rating, Cotton ([6]; Rate 140 g/ha) | Plant response rating, Wild poinsettia ([8]; Rate 35 g/ha)
30: Plant response rating, Barnyardgrass ([5]; Rate 70 g/ha)
5: Plant response rating, H. beggarticks ([7]; Rate 70 g/ha)
100: Plant response rating, Large crabgrass ([1]; Rate 35 g/ha) | Plant response rating, Large crabgrass ([1]; Rate 70 g/ha) | Plant response rating, Large crabgrass ([1]; Rate 140 g/ha) | Plant response rating, Arrowleaf sida ([2]; Rate 35 g/ha) | Plant response rating, Arrowleaf sida ([2]; Rate 70 g/ha) | Plant response rating, Arrowleaf sida ([2]; Rate 140 g/ha) | Plant response rating, Redroot pigweed ([4]; Rate 35 g/ha) | Plant response rating, Redroot pigweed ([4]; Rate 70 g/ha) | Plant response rating, Redroot pigweed ([4]; Rate 140 g/ha) | Plant response rating, H. beggarticks ([7]; Rate 140 g/ha) | Plant response rating, Giant foxtail ([9]; Rate 35 g/ha) | Plant response rating, Giant foxtail ([9]; Rate 70 g/ha) | Plant response rating, Giant foxtail ([9]; Rate 140 g/ha) | Plant response rating, E. blacknightsh ([10]; Rate 35 g/ha) | Plant response rating, E. blacknightsh ([10]; Rate 70 g/ha) | Plant response rating, E. blacknightsh ([10]; Rate 140 g/ha) | Plant response rating, Velvetleaf ([11]; Rate 35 g/ha) | Plant response rating, Velvetleaf ([11]; Rate 70 g/ha) | Plant response rating, Velvetleaf ([11]; Rate 140 g/ha) | Plant response rating, I. morningglory ([12]; Rate 70 g/ha) | Plant response rating, I. morningglory ([12]; Rate 140 g/ha)
20: Plant response rating, I. morningglory ([12]; Rate 35 g/ha)
50: Plant response rating, Barnyardgrass ([5]; Rate 140 g/ha) | Plant response rating, Wild poinsettia ([8]; Rate 70 g/ha)

Reference: patent publication US6525001B1, “Substituted pyrimidine and pyridine herbicides” (Mid-American Commercialization Corporation, priority 1997, dated 2003)
